Test results reported in ChEMBL document CHEMBL1201862, “PubChem BioAssay data set” (2004).
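Interpolation was linear, between the two tested concentrations surrounding the appropriate level; five concentrations were tested over 48 hours in 96-well plates. GI50 marks 50% less growth.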 The source made the active and inactive calls. Rule as the data show it: active = GI50 up to about 1.1 µM and inactive = higher.

Key:
Assay in all cases: inhibition of tumour cell growth, NCI panel, 48 h
786-0 = system: 786-0
A498 = system: A498
A549 = system: A549
ACHN = system: ACHN
CAKI-1 = system: CAKI-1
CCRF-CEM = system: CCRF-CEM
COLO 205 = system: COLO 205
DLD-1 = system: DLD-1
DMS-114 = system: DMS-114
DMS-273 = system: DMS-273
EKVX = system: EKVX
HCC 2998 = system: HCC 2998
HCT-116 = system: HCT-116
HCT-15 = system: HCT-15
HL-60 = system: HL-60
HOP-18 = system: HOP-18
HOP-62 = system: HOP-62
HOP-92 = system: HOP-92
HT-29 = system: HT-29
IGROV-1 = system: IGROV-1
K562 = system: K562
KM-20L2 = system: KM-20L2
KM12 = system: KM12
LXFL 529 = system: LXFL 529
M14 = system: M14
M19-MEL = system: M19-MEL
MOLT-4 = system: MOLT-4
Malme-3M = system: Malme-3M
NCI-H226 = system: NCI-H226
NCI-H23 = system: NCI-H23
NCI-H460 = system: NCI-H460
NCI-H522 = system: NCI-H522
OVCAR-3 = system: OVCAR-3
OVCAR-4 = system: OVCAR-4
OVCAR-5 = system: OVCAR-5
OVCAR-8 = system: OVCAR-8
RPMI-8226 = system: RPMI-8226
SF-268 = system: SF-268
SF-295 = system: SF-295
SF-539 = system: SF-539
SK-MEL-28 = system: SK-MEL-28
SK-MEL-2 = system: SK-MEL-2
SK-MEL-5 = system: SK-MEL-5
SK-OV-3 = system: SK-OV-3
SN12C = system: SN12C
SNB-19 = system: SNB-19
SNB-75 = system: SNB-75
SNB-78 = system: SNB-78
SR = system: SR
SW-620 = system: SW-620
TK-10 = system: TK-10
U-251 = system: U-251
UACC-257 = system: UACC-257
UACC-62 = system: UACC-62
UO-31 = system: UO-31
XF498 = system: XF498
LOX IMVI = system: LOX IMVI
RXF 393 = system: RXF 393

Measured: GI50

COc1ccc(S(=O)(=O)N/N=C(\C)CN2C(=O)c3ccccc3C2=O)cc1OC
inactive: 786-0 > 100 µM | A498 > 100 µM | A549 > 100 µM | ACHN > 100 µM | CAKI-1 > 100 µM | CCRF-CEM > 100 µM | COLO 205 > 100 µM | DLD-1 > 100 µM | DMS-114 > 100 µM | DMS-273 > 100 µM | EKVX > 100 µM | HCC 2998 > 100 µM | HCT-116 > 100 µM | HL-60 > 100 µM | HOP-18 > 100 µM | HOP-62 > 100 µM | HOP-92 > 100 µM | HT-29 > 100 µM | IGROV-1 > 100 µM | K562 > 100 µM | KM-20L2 > 100 µM | KM12 > 100 µM | LXFL 529 > 100 µM | M14 > 100 µM | M19-MEL > 100 µM | MOLT-4 > 100 µM | Malme-3M > 100 µM | NCI-H226 > 100 µM | NCI-H23 > 100 µM | NCI-H460 > 100 µM | NCI-H522 > 100 µM | OVCAR-3 > 100 µM | OVCAR-4 > 100 µM | OVCAR-5 > 100 µM | OVCAR-8 > 100 µM | RPMI-8226 > 100 µM | SF-268 > 100 µM | SF-295 > 100 µM | SF-539 > 100 µM | SK-MEL-28 > 100 µM | SK-MEL-2 > 100 µM | SK-MEL-5 > 100 µM | SK-OV-3 > 100 µM | SN12C > 100 µM | SNB-19 > 100 µM | SNB-75 > 100 µM | SNB-78 > 100 µM | SR > 100 µM | SW-620 > 100 µM | TK-10 > 100 µM | U-251 > 100 µM | UACC-257 > 100 µM | UACC-62 > 100 µM | UO-31 > 100 µM | XF498 > 100 µM
> 100 µM: HCT-15

COC(=O)CC[C@@H](NC(=O)C(C)NC(=O)COC1C(O)C(COC(=O)CCCCCCCCCCNC(=O)c2ccc([N+](=O)[O-])c3[nH]c4cc(Br)ccc4c(=O)c23)OC(OCc2ccccc2)C1NC(C)=O)C(N)=O (stereo partly drawn)
> 100 µM: HCT-15
inactive: 786-0 > 100 µM | A549 > 100 µM | ACHN > 100 µM | CAKI-1 > 100 µM | CCRF-CEM > 100 µM | COLO 205 96.6 µM | DLD-1 35.4 µM | DMS-114 35.6 µM | DMS-273 > 100 µM | EKVX 17.3 µM | HCC 2998 22.5 µM | HCT-116 > 100 µM | HL-60 23 µM | HOP-18 35.7 µM | HOP-62 83.8 µM | HOP-92 37.1 µM | HT-29 > 100 µM | IGROV-1 19.5 µM | K562 44.4 µM | KM-20L2 > 100 µM | KM12 > 100 µM | LOX IMVI 44.2 µM | LXFL 529 26.2 µM | M14 61.4 µM | M19-MEL 50.8 µM | MOLT-4 70.3 µM | Malme-3M > 100 µM | NCI-H226 25.1 µM | NCI-H23 > 100 µM | NCI-H460 57.3 µM | NCI-H522 32.7 µM | OVCAR-3 25.7 µM | OVCAR-4 > 100 µM | OVCAR-5 37.3 µM | OVCAR-8 > 100 µM | RPMI-8226 39.7 µM | RXF 393 56.6 µM | SF-268 57.4 µM | SF-295 > 100 µM | SF-539 > 100 µM | SK-MEL-28 > 100 µM | SK-MEL-2 95.1 µM | SK-MEL-5 68.7 µM | SK-OV-3 > 100 µM | SN12C > 100 µM | SNB-19 94 µM | SNB-75 > 100 µM | SNB-78 71.8 µM | SR 42.6 µM | SW-620 > 100 µM | TK-10 > 100 µM | U-251 > 100 µM | UACC-257 > 100 µM | UACC-62 65.8 µM | UO-31 > 100 µM | XF498 > 100 µM
